Columns and labels:
[1] = test system: cellular histone deacetylase activity (Lys-Ac); assay: Inhibition of cellular HDAC activity (Cell Lys-Ac); assay type: cell-based; conditions: Lys-Ac substrate
[2] = target: Histone Deacetylase 4 (HDAC4) catalytic domain (Homo sapiens (Human), UniProt P56524); assay: Biochemical HDAC inhibition assay, fluorogenic substrate Boc-Lys(Tfa)-AMC
Summary of the method: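 Human HDAC4 catalytic domain (aa 648-1032, C-terminal His6) at 0.2 μg/mL working solution was tested against a 16-point compound dilution series in Tris buffer pH 8.0 for 15 min at 37 °C. Substrate Boc-Lys(Tfa)-AMC was prepared at 50 μM (5×). The reaction was stopped with trypsin plus reference inhibitor for 1 h at 37 °C, and AMC fluorescence was read at Ex 355/Em 460 nm.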

[3] = test system: cellular histone deacetylase enzymatic activity in Jurkat E6-1 cells; assay: Inhibition of cellular HDAC activity, Boc-Lys(Tfa)-AMC substrate (Cell Lys-TFA); assay type: cell-based
Summary of the method: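 Jurkat E6-1 cells (75,000/well) were treated with a 16-point compound dilution for 2 h at 37 °C, then exposed to Boc-Lys(Tfa)-AMC for 3 h. Lysis buffer containing trypsin was added overnight (15-16 h), and AMC fluorescence was read at Ex 355/Em 460 nm.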

[4] = Homo sapiens, Jurkat E6.1, Lys-TFA substrate

Chain of Histone Deacetylase 4 (HDAC4) catalytic domain (P56524 648-1032): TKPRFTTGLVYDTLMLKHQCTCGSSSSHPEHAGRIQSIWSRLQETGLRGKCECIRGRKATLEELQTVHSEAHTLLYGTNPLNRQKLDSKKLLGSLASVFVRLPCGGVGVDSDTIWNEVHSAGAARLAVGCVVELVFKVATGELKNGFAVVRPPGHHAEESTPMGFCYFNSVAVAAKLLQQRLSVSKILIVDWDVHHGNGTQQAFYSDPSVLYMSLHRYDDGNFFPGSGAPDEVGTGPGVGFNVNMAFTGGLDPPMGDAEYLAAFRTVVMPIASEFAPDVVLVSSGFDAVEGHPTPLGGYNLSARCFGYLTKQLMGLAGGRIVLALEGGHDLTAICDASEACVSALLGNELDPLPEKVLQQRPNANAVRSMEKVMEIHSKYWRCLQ

SMILES	IC50 [1] [nM]	IC50 [2] [nM]	IC50 [3, 4] [nM]	IC50 ([3]; Lys-TFA substrate) [nM]
Cc1c(F)cccc1[C@]1(C(=O)NO)Cc2cnn(-c3ccccc3)c2C1 [Example 1, (S)-5-(3-Fluoro-2-methylphenyl)-N-hydroxy-1-phenyl-1,4,5,6-tetrahydrocyclopenta[c]pyrazole-5-carboxamide]	> 50000	28	59	
Cc1c(F)cccc1[C@]1(C(=O)NO)Cc2cn(-c3ncccc3F)nc2C1 [Example 29, (S)-5-(3-Fluoro-2-methylphenyl)-2-(3-fluoropyridin-2-yl)-N-hydroxy-2,4,5,6-tetrahydrocyclopenta[c]pyrazole-5-carboxamide]	> 50000	104	69	
Cc1cccc(-n2cc3c(n2)C[C@](C(=O)NO)(c2cccc(F)c2C)C3)c1 [Example 25, (S)-5-(3-fluoro-2-methylphenyl)-N-hydroxy-2-(m-tolyl)-2,4,5,6-tetrahydrocyclopenta[c]pyrazole-5-carboxamide]	> 50000	76	160	
Cc1cccc(C)c1-n1ncc2c1C[C@](C(=O)NO)(c1cccc(F)c1C)C2 [Example 13, (S)-1-(2,6-Dimethylphenyl)-5-(3-fluoro-2-methylphenyl)-N-hydroxy-1,4,5,6-tetrahydrocyclopenta[c]pyrazole-5-carboxamide]	> 50000	27	12	
Cc1c(F)cccc1[C@]1(C(=O)NO)Cc2cnn(-c3cccc(F)c3)c2C1 [Example 6, (S)-5-(3-Fluoro-2-methylphenyl)-1-(3-fluorophenyl)-N-hydroxy-1,4,5,6-tetrahydrocyclopenta[c]pyrazole-5-carboxamide]	> 50000	44	67	
Cc1cnccc1-n1cc2c(n1)C[C@](C(=O)NO)(c1cccc(F)c1C)C2 [Example 27, (S)-5-(3-fluoro-2-methylphenyl)-N-hydroxy-2-(3-methylpyridin-4-yl)-2,4,5,6-tetrahydrocyclopenta[c]pyrazole-5-carboxamide]	> 50000	53	116	
Cc1c(F)cccc1[C@]1(C(=O)NO)Cc2cnn(-c3c(F)cccc3Cl)c2C1 [Example 14, (S)-1-(2-Chloro-6-fluorophenyl)-5-(3-fluoro-2-methylphenyl)-N-hydroxy-1,4,5,6-tetrahydrocyclopenta[c]pyrazole-5-carboxamide]	> 50000	15	11	
Cc1c(F)cccc1C1(C(=O)NO)CCc2c(cnn2-c2ccccc2)C1 (single isomer, unassigned) [Example 32, E2-(abs)-5-(3-fluoro-2-methylphenyl)-N-hydroxy-1-phenyl-4,5,6,7-tetrahydro-1H-indazole-5-carboxamide]	> 50000	17300		2900
Cc1c(F)cccc1C1(C(=O)NO)CCc2nn(Cc3ccc(F)cc3)cc2C1 (stereo not drawn) [Example 36, 5-(3-Fluoro-2-methylphenyl)-1-(4-fluorobenzyl)-N-hydroxy-4,5,6,7-tetrahydro-1H-indazole-5-carboxamide and 5-(3-fluoro-2-methylphenyl)-2-(4-fluorobenzyl)-N-hydroxy-4,5,6,7-tetrahydro-2H-indazole-5-carboxamide]	> 50000	600		370
Cc1c(F)cccc1[C@]1(C(=O)NO)Cc2cnn(-c3ccccc3F)c2C1 [Example 3, (S)-5-(3-Fluoro-2-methylphenyl)-1-(2-fluorophenyl)-N-hydroxy-1,4,5,6-tetrahydrocyclopenta[c]pyrazole-5-carboxamide]	> 50000	17	33	
Cc1c(F)cccc1[C@]1(C(=O)NO)Cc2cnn(-c3ccc(F)cc3)c2C1 [Example 5, (S)-5-(3-Fluoro-2-methylphenyl)-1-(4-fluorophenyl)-N-hydroxy-1,4,5,6-tetrahydrocyclopenta[c]pyrazole-5-carboxamide]	> 50000	53	99	
Cc1c(F)cccc1[C@]1(C(=O)NO)Cc2cnn(-c3ccccc3Cl)c2C1 [Example 7, (S)-1-(2-Chlorophenyl)-5-(3-fluoro-2-methylphenyl)-N-hydroxy-1,4,5,6-tetrahydrocyclopenta[c]pyrazole-5-carboxamide]	> 50000	15	13	

Next, values leading:

IC50 [1] [nM]	IC50 [2] [nM]	IC50 [3, 4] [nM]	IC50 ([3]; Lys-TFA substrate) [nM]	SMILES
> 50000	67	230		Cc1c(F)cccc1[C@]1(C(=O)NO)Cc2cnn(C(C)C)c2C1 [Example 53, (S)-5-(3-Fluoro-2-methylphenyl)-N-hydroxy-1-isopropyl-1,4,5,6-tetrahydrocyclopenta[c]pyrazole-5-carboxamide]
> 50000	1600	760		Cc1c(F)cccc1C1(C(=O)NO)CCc2nc(C3CC3)ncc2C1 (stereo not drawn) [Example 46, 2-Cyclopropyl-6-(3-fluoro-2-methylphenyl)-N-hydroxy-5,6,7,8-tetrahydroquinazoline-6-carboxamide]
> 50000	490	38		Cc1c(F)cccc1C1(C(=O)NO)Cc2nc(Cc3cccc(C(F)(F)F)c3)sc2C1 (stereo not drawn) [Example 63, 5-(3-Fluoro-2-methylphenyl)-N-hydroxy-2-(3-(trifluoromethyl)benzyl)-5,6-dihydro-4H-cyclopenta[d]thiazole-5-carboxamide]
> 50000	770	320		Cc1c(F)cccc1C1(C(=O)NO)CCc2nc(C3CC3)sc2C1 (stereo not drawn) [Example 42, 2-Cyclopropyl-6-(3-fluoro-2-methylphenyl)-N-hydroxy-4,5,6,7-tetrahydrobenzo[d]thiazole-6-carboxamide]
> 50000	1000	1500		Cc1c(F)cccc1C1(C(=O)NO)CCc2ncsc2C1 (stereo not drawn) [Example 44, 6-(3-Fluoro-2-methylphenyl)-N-hydroxy-4,5,6,7-tetrahydrobenzo[d]thiazole-6-carboxamide]
> 50000	100	720		Cc1c(F)cccc1[C@]1(C(=O)NO)CCc2c1cnn2C1CC1 [Example 59, (R)-1-cyclopropyl-4-(3-fluoro-2-methylphenyl)-N-hydroxy-1,4,5,6-tetrahydrocyclopenta[c]pyrazole-4-carboxamide]
> 50000	1900	660		Cc1c(F)cccc1C1(C(=O)NO)CCc2nc(-c3cncnc3)sc2C1 (stereo not drawn) [Example 43, 6-(3-Fluoro-2-methylphenyl)-N-hydroxy-2-(pyrimidin-5-yl)-4,5,6,7-tetrahydrobenzo[d]thiazole-6-carboxamide]
> 50000	51	60		Cc1c(F)cccc1[C@@]1(C(=O)NO)Cc2nc(-c3ccc(F)cn3)sc2C1 [Example 96, (R)-5-(3-Fluoro-2-methylphenyl)-N-hydroxy-2-(5-fluoropyridin-2-yl)-5,6-dihydro-4H-cyclopenta[d]thiazole-5-carboxamide]
> 50000	240	120		Cc1c(F)cccc1[C@]1(C(=O)NO)Cc2nc(-c3ccnn3C)sc2C1 [Example 68, (S)-5-(3-Fluoro-2-methylphenyl)-N-hydroxy-2-(1-methyl-1H-pyrazol-5-yl)-5,6-dihydro-4H-cyclopenta[d]thiazole-5-carboxamide]
> 50000	3700	2600		Cc1c(F)cccc1C1(C(=O)NO)CCc2ncncc2C1 (stereo not drawn) [Example 45, 6-(3-Fluoro-2-methylphenyl)-N-hydroxy-5,6,7,8-tetrahydroquinazoline-6-carboxamide]
> 50000	48	125		Cc1c(F)cccc1[C@]1(C(=O)NO)Cc2cnn(C3CC3)c2C1 [Example 58, (S)-1-Cyclopropyl-5-(3-fluoro-2-methylphenyl)-N-hydroxy-1,4,5,6-tetrahydrocyclopenta[c]pyrazole-5-carboxamide]

— patent US10065948B2, “Histone deacetylase inhibitors and compositions and methods of use thereof” (CHDI Foundation, Inc., priority 2014, dated 2018)
